{"source": "patent US12599572B2", "about": "“Solid lipid nanoparticles of curcumin” (priority 2018, dated 2026)", "key": {"[1]": {"details": "combined with piperine, rats (Shoba et al., 1998); cited from earlier work"}, "[2]": {"test": "Pharmacokinetic studies, single oral dose", "type": "in vivo, Wistar Rats", "details": "rats, 100 mg/kg single oral dose", "method": "For in vivo pharmacokinetic studies, female Wistar Rats were used. The animals were divided into 3 groups (n=3). […] The blood samples (0.5 ml) were withdrawn from retro-orbital plexus at different time intervals and collected into microcentrifuge tubes containing EDTA. Plasma was separated by centrifuging the blood samples at 10000 rpm for 6 min at 5° C. After centrifugation, the plasma obtained was stored at −20° C. until analysis. […] To 50 μl of plasma samples in an eppendorf tube, 150 μl of methanol and 300 μl of acetonitrile:water (1:1) was added. The sample was vortexed for 5 min and centrifuged at 15,000 rpm to separate precipitated proteins. Supernatant was transferred to suitably labelled tubes. The sample was filtered through 0.2 μm syringe filter and was used for analysis using the developed Ultra high pressure liquid chromatography (UPLC) method. The pharmacokinetic parameters were calculated using non-compartmental model. The area under the concentration-time curve from time zero to time t (AUCo-t) was calculated using the trapezoidal method. Peak concentration (Cmax) and the time at which the peak concentration is achieved (Tmax), were obtained directly from the individual concentration-time profiles. All values were corrected for the spiked concentration. The area under the concentration-time curve from time zero to infinity was calculated by: AUCo-x=AUCo-+Ct/Ke, where Ct is the drug concentration observed at the last time and Ke is the apparent elimination rate constant obtained from the terminal slope of the individual concentration-time curves after logarithmic transformation of the concentration values and application of linear regression. AUMC was determined by plotting concentration*time (ct) versus time (t) using trapezoidal method. Mean residence time (MRT) was calculated by: MRT=AUMC/AUC."}, "[3]": {"test": "In-vitro release (Franz-diffusion cells, dialysis membrane)", "type": "physicochemical", "method": "Jacketed franz-diffusion cells were used for the determination of in-vitro release of free curcumin and curcumin from C-SLNaq. These cells consist of the donor and the receptor chamber between which dialysis membrane is positioned. The dialysis membrane was soaked in double distilled water for 12 h prior to use. The whole system was water jacketed and thermostatically controlled by an external circulating water bath at 37° C.±1° C. The used receptor media consisted of 50% ethanol in distilled water. […] The receptor media was stirred throughout the experiment, using a magnetic stirrer. Iml aliquots were withdrawn regularly from the receptor compartment at various times starting at 30 min and replaced by an equal volume of fresh receptor medium. The samples were analysed, immediately, spectrophotometrically at 425 nm."}, "[4]": {"test": "Photostability study (ICH)", "type": "physicochemical", "method": "The above samples were placed in photostability chamber and exposed to light providing illumination of not less than 1.2 million lux hours for 10 days. After 10 days the containers were withdrawn and […] evaluated for total drug content, entrapment efficiency, particle size, zeta-potential and PDI. Samples of free drug, […] and C-SLNbent were analysed for total drug content."}, "Solubility of curcumin": {"test": "Solubility of curcumin", "type": "physicochemical"}, "[5]": {"test": "Degradation studies (hydrolytic stability at pH 1.2, 6.8, 7.4 and 9)", "type": "physicochemical", "details": "for k value: zero order", "method": "It was further diluted to 5 μg/ml with respective buffers (pH 1.2, pH 6.8, pH 7.4 and pH 9). In case of C-SLNaq, Iml dispersion was placed in a dialysis bag and dialyzed against methanol (100 ml) at room temperature for 45 minutes to remove unentrapped drug. […] The stock solution and sample solution were prepared in amber coloured volumetric flasks to avoid photodegradation. The solutions were prepared and incubated at 37° C. […] […] Presence of water quenches the fluorescent intensity of curcumin. The samples were thus analysed subsequently using the UV/Visible spectrophotometer at λmax425 nm. The absorbance read at zero time was considered as 100% and change in concentration and % degradation was determined accordingly.\nThe graph between concentration versus time, log concentration versus time and percent drug remaining versus time were plotted."}}, "note": "Where two headings read alike, the source gives them in different places."}
{"smiles": "COc1cc(C=CC(=O)CC(=O)C=Cc2ccc(O)c(OC)c2)ccc1O", "note": "[Free curcumin, 1,7-bis(4-hydroxy-3-methoxyphenyl)-1,6-hepadiene-3,5-dione]", "values": [{"measurement": "increase in the oral bioavailability", "setting": "[1]", "result": 154, "unit": "%"}, {"measurement": "AUC(0-inf)", "setting": "[2]; female, Wistar, rat, plasma", "result": 2.69, "unit": "ng·h/mL"}, {"measurement": "Cmax", "setting": "[2]; female, Wistar, rat, plasma", "result": 1.79, "unit": "ng/mL"}, {"measurement": "MRT", "setting": "[2]; female, Wistar, rat, plasma", "result": 2, "unit": "h"}, {"measurement": "Tmax", "setting": "[2]; female, Wistar, rat, plasma", "result": 2, "unit": "h"}, {"measurement": "AUMC0-∞", "setting": "[2]", "result": 5.38, "unit": "h^2*ng/ml"}, {"measurement": "order of release", "setting": "[3]", "result": "first order"}, {"measurement": "release model followed", "setting": "[3]", "result": "Hixon model"}, {"measurement": "time over which drug was released", "setting": "[3]; receptor 50% ethanol, 37° C.", "result": "≤ 8", "unit": "h"}, {"measurement": "TDC %", "setting": "[4]; Amber glass, 0 day", "result": "100.00 ± 0", "unit": "%"}, {"measurement": "TDC %", "setting": "[4]; Amber glass, 10 days", "result": "78.31 ± 7.1", "unit": "%"}, {"measurement": "TDC %", "setting": "[4]; Transparent, 0 day", "result": "100.00 ± 0", "unit": "%"}, {"measurement": "TDC %", "setting": "[4]; Transparent, 10 days", "result": "65.51 ± 7.5", "unit": "%"}, {"measurement": "degradation", "setting": "[4]; amber coloured containers, 10 days", "result": 21.7, "unit": "%"}, {"measurement": "degradation", "setting": "[4]; transparent containers, 10 days", "result": 35, "unit": "%"}, {"measurement": "solubility", "setting": "Solubility of curcumin; 50% (v/v) ethanol, aqueous with cosolvent or surfactant or cyclodextrin", "result": 693, "unit": "µg/mL"}, {"measurement": "solubility", "setting": "Solubility of curcumin; water, read-out: aqueous solubility", "result": 0.6, "unit": "µg/mL"}, {"measurement": "solubility", "setting": "Solubility of curcumin; water, room temperature, read-out: Solubility in water", "result": "0.003 ± 0.002", "unit": "µg/mL"}, {"measurement": "half-life at 5 μg/ml", "setting": "[5]; alkaline borate buffer pH 9, pH 9", "result": 0.669, "unit": "h"}, {"measurement": "half-life at 5 μg/ml", "setting": "[5]; buffer pH 1.2, pH 1.2", "result": 17.3, "unit": "h"}, {"measurement": "order of degradation kinetics", "setting": "[5]; investigated pH conditions (C-SLN: except pH 9)", "result": "zero order"}, {"measurement": "Percentage remaining", "setting": "[5]; pH 1.2, 0 h", "result": "100.00 ± 0.06", "unit": "%"}, {"measurement": "Percentage remaining", "setting": "[5]; pH 1.2, 0.08 h", "result": "89.23 ± 0.02", "unit": "%"}, {"measurement": "Percentage remaining", "setting": "[5]; pH 1.2, 0.25 h", "result": "88.29 ± 0.01", "unit": "%"}, {"measurement": "Percentage remaining", "setting": "[5]; pH 1.2, 0.5 h", "result": "85.60 ± 0.01", "unit": "%"}, {"measurement": "Percentage remaining", "setting": "[5]; pH 1.2, 1 h", "result": "87.24 ± 0.001", "unit": "%"}, {"measurement": "Percentage remaining", "setting": "[5]; pH 1.2, 2 h", "result": "72.37 ± 0.02", "unit": "%"}, {"measurement": "Percentage remaining", "setting": "[5]; pH 1.2, 3 h", "result": "68.74 ± 0.03", "unit": "%"}, {"measurement": "Percentage remaining", "setting": "[5]; pH 1.2, 4 h", "result": "62.76 ± 0.01", "unit": "%"}, {"measurement": "Percentage remaining", "setting": "[5]; pH 1.2, 5 h", "result": "61.01 ± 0.01", "unit": "%"}, {"measurement": "Percentage remaining", "setting": "[5]; pH 1.2, 6 h", "result": "53.40 ± 0.02", "unit": "%"}, {"measurement": "Percentage remaining", "setting": "[5]; pH 1.2, 24 h", "result": "15.76 ± 0.01", "unit": "%"}, {"measurement": "degradation", "setting": "[5]; pH 1.2, 24 h", "result": "≤ 85", "unit": "%"}, {"measurement": "degradation", "setting": "[5]; pH 1.2, upto 6 h", "result": "≤ 50", "unit": "%"}, {"measurement": "degradation", "setting": "[5]; pH 1.2 medium, 4h", "result": "~40", "unit": "%"}, {"measurement": "Percentage remaining", "setting": "[5]; pH 6.8, 0 h", "result": "100.00 ± 0.04", "unit": "%"}, {"measurement": "Percentage remaining", "setting": "[5]; pH 6.8, 0.08 h", "result": "94.93 ± 0.06", "unit": "%"}, {"measurement": "Percentage remaining", "setting": "[5]; pH 6.8, 0.25 h", "result": "87.63 ± 0.04", "unit": "%"}, {"measurement": "Percentage remaining", "setting": "[5]; pH 6.8, 0.5 h", "result": "81.95 ± 0.08", "unit": "%"}, {"measurement": "Percentage remaining", "setting": "[5]; pH 6.8, 1 h", "result": "79.72 ± 0.06", "unit": "%"}, {"measurement": "Percentage remaining", "setting": "[5]; pH 6.8, 2 h", "result": "66.73 ± 0.05", "unit": "%"}, {"measurement": "Percentage remaining", "setting": "[5]; pH 6.8, 3 h", "result": "62.68 ± 0.07", "unit": "%"}, {"measurement": "Percentage remaining", "setting": "[5]; pH 6.8, 4 h", "result": "57.81 ± 0.05", "unit": "%"}, {"measurement": "Percentage remaining", "setting": "[5]; pH 6.8, 5 h", "result": "43.61 ± 0.08", "unit": "%"}, {"measurement": "Percentage remaining", "setting": "[5]; pH 6.8, 6 h", "result": "23.12 ± 0.04", "unit": "%"}, {"measurement": "degradation", "setting": "[5]; pH 6.8, 6 h", "result": 77, "unit": "%"}, {"measurement": "Percentage remaining", "setting": "[5]; pH 6.8, 24 h", "result": "11.36 ± 0.04", "unit": "%"}, {"measurement": "degradation", "setting": "[5]; pH 6.8, 24 h", "result": 89, "unit": "%"}, {"measurement": "Percentage remaining", "setting": "[5]; pH 7.4, 0 h", "result": "100.0 ± 0.060", "unit": "%"}, {"measurement": "Percentage remaining", "setting": "[5]; pH 7.4, 0.08 h", "result": "96.33 ± 0.02", "unit": "%"}, {"measurement": "Percentage remaining", "setting": "[5]; pH 7.4, 0.25 h", "result": "93.81 ± 0.04", "unit": "%"}, {"measurement": "Percentage remaining", "setting": "[5]; pH 7.4, 0.5 h", "result": "84.17 ± 0.04", "unit": "%"}, {"measurement": "Percentage remaining", "setting": "[5]; pH 7.4, 1 h", "result": "75.92 ± 0.04", "unit": "%"}, {"measurement": "Percentage remaining", "setting": "[5]; pH 7.4, 2 h", "result": "67.20 ± 0.03", "unit": "%"}, {"measurement": "Percentage remaining", "setting": "[5]; pH 7.4, 3 h", "result": "61.01 ± 0.03", "unit": "%"}, {"measurement": "Percentage remaining", "setting": "[5]; pH 7.4, 4 h", "result": "49.08 ± 0.04", "unit": "%"}, {"measurement": "Percentage remaining", "setting": "[5]; pH 7.4, 5 h", "result": "40.60 ± 0.03", "unit": "%"}, {"measurement": "Percentage remaining", "setting": "[5]; pH 7.4, 6 h", "result": "24.31 ± 0.01", "unit": "%"}, {"measurement": "degradation", "setting": "[5]; pH 7.4, 6 h", "result": 75, "unit": "%"}, {"measurement": "Percentage remaining", "setting": "[5]; pH 7.4, 24 h", "result": "13.99 ± 0.01", "unit": "%"}, {"measurement": "degradation", "setting": "[5]; pH 7.4, 24 h", "result": 77, "unit": "%"}, {"measurement": "Percentage remaining", "setting": "[5]; pH 9, 0 h", "result": "100.00 ± 0.004", "unit": "%"}, {"measurement": "Percentage remaining", "setting": "[5]; pH 9, 0.08 h", "result": "82.59 ± 0.009", "unit": "%"}, {"measurement": "Percentage remaining", "setting": "[5]; pH 9, 0.25 h", "result": "61.43 ± 0.004", "unit": "%"}, {"measurement": "Percentage remaining", "setting": "[5]; pH 9, 0.5 h", "result": "32.76 ± 0.006", "unit": "%"}, {"measurement": "Percentage remaining", "setting": "[5]; pH 9, 1 h", "result": "20.48 ± 0.001", "unit": "%"}, {"measurement": "Percentage remaining", "setting": "[5]; pH 9, 2 h", "result": "15.70 ± 0.002", "unit": "%"}, {"measurement": "Percentage remaining", "setting": "[5]; pH 9, 3 h", "result": "9.90 ± 0.003", "unit": "%"}, {"measurement": "Percentage remaining", "setting": "[5]; pH 9, 4 h", "result": "2.39 ± 0.004", "unit": "%"}, {"measurement": "degradation", "setting": "[5]; pH 9, 4 h", "result": "approximately 98%"}, {"measurement": "half-life at 5 μg/ml", "setting": "[5]; phosphate buffer pH 6.8, pH 6.8", "result": 1.32, "unit": "h"}, {"measurement": "half-life at 5 μg/ml", "setting": "[5]; phosphate buffer pH 7.4, pH 7.4", "result": 9.4, "unit": "h"}, {"measurement": "k value", "setting": "[5]; pH 1.2", "result": 0.039}, {"measurement": "k value", "setting": "[5]; pH 6.8", "result": 0.52}, {"measurement": "k value", "setting": "[5]; pH 7.4", "result": 0.073}, {"measurement": "k value", "setting": "[5]; pH 9", "result": 0.95}]}
